These results are taken from patent publication EP4799637A1, “NASAL ADMINISTRATION COMPOSITION CONTAINING GLP-1 RECEPTOR AGONIST, AND PREPARATION METHOD THEREFOR AND USE THEREOF” (Zhongshan Wanhan Pharmaceutical Co., Ltd., priority 2023, dated 2025).

Series [1] in a line: parallel artificial membrane permeability assay (PAMPA) of semaglutide formulations with permeation promoters. Format: in vitro ADME. The following applies: Skin PAMPA, permeation promoters at the same concentration of 0.25% (w/v%). On the procedure:
1.1. Test objective: to investigate the differences in in-vitro permeability of semaglutide having a concentration of 10 mM in pH7.4 […] buffer by using the PAMPA method after the addition of different types and proportions of permeation promoters. An appropriate amount of 10 mM semaglutide mother liquor was weighed and placed in a liquid phase injection vial, and different permeation promoters were weighed and added correspondingly according to types and proportions listed in Table 1; a magnetic stirrer was added; the magnetic stirrer was turned on to adjust a rotation speed to 650 rpm; and the temperature of the magnetic stirrer was kept at 37°C, followed by stirring for later use. Table 1 • Donor wells solutions were solutions of Formulations 1-20; • An acceptor wells solution was pH 7.4 Prisma HT buffer. • 1) PAMPA membrane hydration: a Hydration Solution (Pion) was prepared (used at room temperature); donor wells of a PAMPA plate were carefully removed; 200 μl of Hydration Solution was added to each well, and whether each empty surface forms a curved surface due to surface tension was observed; and acceptor wells of the PAMPA plate were covered carefully, while air bubbles were avoided on contact surfaces. The Hydration Solution was kept moist and hydrated overnight, and the hydrated membrane will appear translucent or have white spots. […]

Series [2] is described as follows: Compatibility/stability study: HPLC main peak purity and impurities after storage in the dark at 40°C and 50°C. Format: physicochemical. The following applies: result in words. The method, then:
The changes in semaglutide content and impurities in a semaglutide solution, semaglutide+different permeation promoter solutions, and semaglutide+different bacteriostatic agent solutions were determined under HPLC conditions in Example 1 after being stored in the dark for 10 days (10 D) at 40°C and 50°C, and the results were shown in Table 7.
The definitions of the hydrophilic impurities 1 and 2 and the hydrophobic impurity in Table 7 were shown in HPLC chromatograms of Formulations C1 to C4 shown in FIGS. 1-4 determined at 50°C on Day 10.
As a control, main peak intensities of compositions J and K in CN116942612A at 50°C on Day 5 were determined using the same method, both of which were below 95%.

For the compound `CCCCCCCCCCCCO[C@@H]1O[C@H](CO)[C@@H](O[C@H]2O[C@H](CO)[C@@H](O)[C@H](O)[C@H]2O)[C@H](O)[C@H]1O` [dodecyl-β-D-maltoside], the permeation promoting effect entry in series [1] is on record as “better permeation promoting effects”.
Still for that read-out and setting: the value for `CCCCCCCCCCCC(=O)OCCOCCOCCOCCOCCOCCOCCOCCOCCOCCOCCOCCOCCOCCOCCOCCOCCOCCOCCOCCOCC(OCCOCCOCCOCCOCCOCCOCCOCCOCCOCCOCCOCCOCCOCCOCCOCCOCCOCCOCCOCCO)C1OCC(OCCOCCOCCOCCOCCOCCOCCOCCOCCOCCOCCOCCOCCOCCOCCOCCOCCOCCOCCOCCO)C1OCCOCCOCCOCCOCCOCCOCCOCCOCCOCCOCCOCCOCCOCCOCCOCCOCCOCCOCCOCCO` (stereo not shown) [polysorbate-20] was “better permeation promoting effects”.
Regarding benzalkonium chloride, the “protective effect on semaglutide (inhibited degradation)” value in series [2] is “protective effect on semaglutide”.
As for polyoxyethylene (8) dodecyl ether, in series [1], the permeation promoting effect result is given as “better permeation promoting effects”.
